Laboratory results reported in ChEMBL document CHEMBL6134816, “The discovery of novel N-heterocyclic-based AKT inhibitors with potential efficacy against prostate cancer” (Eur J Med Chem, 2025).
Each block holds one compound with its values, some of them ahead of it. Active and inactive are the calls of the source. The rule behind the calls is not given here.

What was measured:
[1] = system: PC-3; assay: cells; settings: Homo sapiens, PC-3, 72 h
Description: Antiproliferative activity against human PC-3 cells assessed as inhibition of cell proliferation incubated for 72 hrs by MTT assay

[2] = system: PC-3; assay: Cell cycle arrest in human PC-3 cells assessed as accumulation of cells at S phase at 5 uM incubated for 48 hrs by PI staining based flow cytometric analysis (reference value: 24.79 %); assay type: functional
[3] = system: PC-3; assay: Cell cycle arrest in human PC-3 cells assessed as accumulation of cells at S phase at 1 uM incubated for 48 hrs by PI staining based flow cytometric analysis (reference value: 24.79 %); assay type: functional
[4] = system: PC-3; assay: Cell cycle arrest in human PC-3 cells assessed as accumulation of cells at G1 phase at 5 uM incubated for 48 hrs by PI staining based flow cytometric analysis (reference value: 60.75 %); assay type: functional
[5] = system: PC-3; assay: Cell cycle arrest in human PC-3 cells assessed as accumulation of cells at G1 phase at 1 uM incubated for 48 hrs by PI staining based flow cytometric analysis (reference value: 60.75 %); assay type: functional
[6] = system: PC-3; assay: Induction of apoptosis in human PC-3 cells assessed as apoptotic rate at 1 uM incubated for 48 hrs by Annexin V-FITC/PI staining based flow cytometric analysis relative to control; assay type: functional
[7] = system: PC-3; assay: Cell cycle arrest in human PC-3 cells assessed as accumulation of cells at S phase at 10 uM incubated for 48 hrs by PI staining based flow cytometric analysis (reference value: 24.79 %); assay type: functional
[8] = system: PC-3; assay: Cell cycle arrest in human PC-3 cells assessed as accumulation of cells at G1 phase at 10 uM incubated for 48 hrs by PI staining based flow cytometric analysis (reference value: 60.75 %); assay type: functional
[9] = system: PC-3; assay: Cell cycle arrest in human PC-3 cells assessed as accumulation of cells at G2 phase at 1 uM incubated for 48 hrs by PI staining based flow cytometric analysis (reference value: 14.45 %); assay type: functional
[10] = system: PC-3; assay: Cell cycle arrest in human PC-3 cells assessed as accumulation of cells at G2 phase at 5 uM incubated for 48 hrs by PI staining based flow cytometric analysis (reference value: 14.45 %); assay type: functional
[11] = system: PC-3; assay: Cell cycle arrest in human PC-3 cells assessed as accumulation of cells at G2 phase at 10 uM incubated for 48 hrs by PI staining based flow cytometric analysis (reference value: 14.45 %); assay type: functional
[12] = molecular target: Glycogen synthase kinase-3 beta (Homo sapiens) (UniProt P49841); assay: Inhibition of GSK3beta (unknown origin) at 1 uM relative to control
Glycogen synthase kinase-3 beta (Homo sapiens), sequence (P49841 whole entry, looked up): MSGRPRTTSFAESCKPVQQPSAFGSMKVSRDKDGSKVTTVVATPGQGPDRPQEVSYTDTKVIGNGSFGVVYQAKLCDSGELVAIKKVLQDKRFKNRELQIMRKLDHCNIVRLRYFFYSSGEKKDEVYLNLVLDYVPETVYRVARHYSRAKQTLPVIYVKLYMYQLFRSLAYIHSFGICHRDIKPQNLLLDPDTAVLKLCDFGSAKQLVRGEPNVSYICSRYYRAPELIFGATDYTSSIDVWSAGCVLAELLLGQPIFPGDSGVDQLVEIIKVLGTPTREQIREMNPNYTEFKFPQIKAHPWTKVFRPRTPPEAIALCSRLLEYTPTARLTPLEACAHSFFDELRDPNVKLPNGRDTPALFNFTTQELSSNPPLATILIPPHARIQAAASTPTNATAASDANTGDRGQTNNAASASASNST

[13] = MRT (0 to infinity) in male ICR mouse at 10 mg/kg, po measured after 24 hrs by LC-MS/MS analysis; assay type: ADME, organism-based; settings: in vivo
[14] = Volume of distribution in male ICR mouse at 1 mg/kg, iv measured after 24 hrs by LC-MS/MS analysis; assay type: ADME, organism-based; settings: in vivo
[15] = MRT (0 to infinity) in male ICR mouse at 1 mg/kg, iv measured after 24 hrs by LC-MS/MS analysis; assay type: ADME, organism-based; settings: in vivo
[16] = molecular target: Cyclin-dependent kinase 1 (Homo sapiens) (UniProt P06493); assay: Inhibition of CDK1 (unknown origin) at 1 uM relative to control
Cyclin-dependent kinase 1 (Homo sapiens), sequence (P06493 whole entry, looked up): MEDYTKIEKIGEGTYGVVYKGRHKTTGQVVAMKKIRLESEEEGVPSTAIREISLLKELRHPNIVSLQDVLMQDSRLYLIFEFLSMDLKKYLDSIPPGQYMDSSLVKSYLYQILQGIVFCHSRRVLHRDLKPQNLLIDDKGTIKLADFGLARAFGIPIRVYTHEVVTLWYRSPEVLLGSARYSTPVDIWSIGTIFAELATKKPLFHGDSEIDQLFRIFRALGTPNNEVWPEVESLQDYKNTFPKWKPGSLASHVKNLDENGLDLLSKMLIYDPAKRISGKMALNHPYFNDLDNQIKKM

[17] = Cmax in male ICR mouse at 10 mg/kg, po measured after 24 hrs by LC-MS/MS analysis; assay type: ADME, organism-based; settings: in vivo
[18] = Half-life in male ICR mouse at 10 mg/kg, po measured after 24 hrs by LC-MS/MS analysis; assay type: ADME, organism-based; settings: in vivo
[19] = Clearance in male ICR mouse at 1 mg/kg, iv measured after 24 hrs by LC-MS/MS analysis; assay type: ADME, organism-based; settings: in vivo
[20] = system: PC-3; assay: Induction of apoptosis in human PC-3 cells assessed as apoptotic rate at 5 to 10 uM incubated for 48 hrs by Annexin V-FITC/PI staining based flow cytometric analysis relative to control; assay type: functional; settings: dose 5-10 µM
[21] = molecular target: RAC-beta serine/threonine-protein kinase (Homo sapiens) (UniProt P31751); assay: Inhibition of AKT2 (unknown origin) using biotin-tagged STK as substrate at 10 nM incubated for 40 mins in presence of ATP by fluorescence based microplate reader analysis relative to control
RAC-beta serine/threonine-protein kinase (Homo sapiens), sequence (P31751 whole entry): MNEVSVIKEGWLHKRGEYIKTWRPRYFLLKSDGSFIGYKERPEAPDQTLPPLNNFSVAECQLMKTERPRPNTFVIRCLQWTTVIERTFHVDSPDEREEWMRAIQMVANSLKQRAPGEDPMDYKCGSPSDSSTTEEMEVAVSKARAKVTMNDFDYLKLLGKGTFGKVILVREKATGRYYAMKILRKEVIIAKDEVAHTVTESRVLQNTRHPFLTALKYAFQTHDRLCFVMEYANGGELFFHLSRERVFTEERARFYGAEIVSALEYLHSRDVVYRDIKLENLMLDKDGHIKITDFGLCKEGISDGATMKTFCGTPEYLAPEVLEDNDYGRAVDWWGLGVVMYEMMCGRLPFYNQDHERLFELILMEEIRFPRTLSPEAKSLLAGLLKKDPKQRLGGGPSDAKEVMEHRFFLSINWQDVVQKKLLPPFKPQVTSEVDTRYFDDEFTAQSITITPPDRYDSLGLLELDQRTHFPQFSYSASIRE

[22] = molecular target: Rho-associated protein kinase 1 (Homo sapiens) (UniProt Q13464); assay: Inhibition of ROCK1 (unknown origin) at 1 uM relative to control
Rho-associated protein kinase 1 (Homo sapiens), sequence (Q13464 2-1354 limits assumed): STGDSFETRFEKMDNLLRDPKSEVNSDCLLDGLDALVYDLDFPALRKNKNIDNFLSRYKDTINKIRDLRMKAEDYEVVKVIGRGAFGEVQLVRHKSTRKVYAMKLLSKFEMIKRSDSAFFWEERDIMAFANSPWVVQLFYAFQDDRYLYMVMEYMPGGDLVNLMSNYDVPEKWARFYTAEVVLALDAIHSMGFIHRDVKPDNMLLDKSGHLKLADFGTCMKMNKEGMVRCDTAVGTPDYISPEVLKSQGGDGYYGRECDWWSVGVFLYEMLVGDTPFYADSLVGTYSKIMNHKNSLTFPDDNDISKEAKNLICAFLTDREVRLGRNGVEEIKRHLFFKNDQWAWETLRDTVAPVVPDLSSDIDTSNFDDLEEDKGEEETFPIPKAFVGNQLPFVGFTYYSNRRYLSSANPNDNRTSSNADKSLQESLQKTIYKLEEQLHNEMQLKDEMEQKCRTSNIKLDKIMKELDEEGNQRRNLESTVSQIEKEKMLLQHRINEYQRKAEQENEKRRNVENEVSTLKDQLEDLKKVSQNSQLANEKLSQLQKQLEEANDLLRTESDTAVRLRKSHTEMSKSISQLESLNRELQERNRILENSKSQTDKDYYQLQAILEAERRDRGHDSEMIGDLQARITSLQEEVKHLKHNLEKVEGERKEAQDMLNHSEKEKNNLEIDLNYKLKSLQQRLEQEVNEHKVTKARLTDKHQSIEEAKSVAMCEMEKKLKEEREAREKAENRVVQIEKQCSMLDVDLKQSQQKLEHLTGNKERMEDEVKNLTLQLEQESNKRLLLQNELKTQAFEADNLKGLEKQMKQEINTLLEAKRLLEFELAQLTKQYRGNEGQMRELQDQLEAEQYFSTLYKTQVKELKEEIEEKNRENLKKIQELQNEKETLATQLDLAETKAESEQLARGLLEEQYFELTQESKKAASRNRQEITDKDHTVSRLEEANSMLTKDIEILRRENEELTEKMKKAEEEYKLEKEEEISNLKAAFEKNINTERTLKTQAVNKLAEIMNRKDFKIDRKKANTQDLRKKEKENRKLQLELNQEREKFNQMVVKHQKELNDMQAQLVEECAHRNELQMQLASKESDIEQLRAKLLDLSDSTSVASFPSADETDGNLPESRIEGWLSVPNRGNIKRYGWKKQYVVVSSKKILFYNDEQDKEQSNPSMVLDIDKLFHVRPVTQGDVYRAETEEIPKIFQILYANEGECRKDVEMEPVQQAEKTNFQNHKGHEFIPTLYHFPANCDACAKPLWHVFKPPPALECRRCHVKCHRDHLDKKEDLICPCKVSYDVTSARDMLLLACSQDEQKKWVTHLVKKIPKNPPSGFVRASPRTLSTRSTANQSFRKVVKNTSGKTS

[23] = molecular target: Ribosomal protein S6 kinase beta-1 (Homo sapiens) (UniProt P23443); assay: Inhibition of p70S6K (unknown origin) at 1 uM relative to control
Ribosomal protein S6 kinase beta-1 (Homo sapiens), sequence (P23443 whole entry, looked up): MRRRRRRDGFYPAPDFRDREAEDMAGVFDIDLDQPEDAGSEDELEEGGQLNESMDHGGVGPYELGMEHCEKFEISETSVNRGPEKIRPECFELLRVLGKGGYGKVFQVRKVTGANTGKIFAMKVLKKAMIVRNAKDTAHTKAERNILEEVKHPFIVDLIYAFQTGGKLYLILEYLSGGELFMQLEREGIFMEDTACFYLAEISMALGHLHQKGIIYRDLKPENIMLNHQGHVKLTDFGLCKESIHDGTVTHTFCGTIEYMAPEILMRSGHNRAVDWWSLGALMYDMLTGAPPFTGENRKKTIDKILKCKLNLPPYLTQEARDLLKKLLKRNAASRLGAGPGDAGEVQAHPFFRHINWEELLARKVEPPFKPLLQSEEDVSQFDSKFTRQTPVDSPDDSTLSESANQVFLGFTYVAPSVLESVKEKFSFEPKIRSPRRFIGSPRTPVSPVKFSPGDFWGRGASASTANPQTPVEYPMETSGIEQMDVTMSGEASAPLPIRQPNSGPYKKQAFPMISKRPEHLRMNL

[24] = molecular target: MAP kinase-interacting serine/threonine-protein kinase 1 (Homo sapiens) (UniProt Q9BUB5); assay: Inhibition of MNK1 (unknown origin) at 1 uM relative to control
MAP kinase-interacting serine/threonine-protein kinase 1 (Homo sapiens), sequence (Q9BUB5 whole entry, looked up): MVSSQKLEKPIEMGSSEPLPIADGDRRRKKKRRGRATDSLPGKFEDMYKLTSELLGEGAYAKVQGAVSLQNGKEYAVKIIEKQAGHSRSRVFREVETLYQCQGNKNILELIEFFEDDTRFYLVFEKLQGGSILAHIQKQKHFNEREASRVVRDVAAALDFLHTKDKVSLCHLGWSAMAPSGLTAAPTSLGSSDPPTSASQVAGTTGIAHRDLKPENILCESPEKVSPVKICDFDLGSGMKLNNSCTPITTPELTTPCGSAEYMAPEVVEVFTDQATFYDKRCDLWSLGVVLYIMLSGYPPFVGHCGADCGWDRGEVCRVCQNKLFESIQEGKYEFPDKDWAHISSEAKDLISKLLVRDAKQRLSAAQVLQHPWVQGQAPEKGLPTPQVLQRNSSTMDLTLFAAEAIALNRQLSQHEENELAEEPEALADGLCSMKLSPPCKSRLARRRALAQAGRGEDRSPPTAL

[25] = species on record: Homo sapiens; assay: Inhibition of PKA (unknown origin) at 1 uM relative to control
[26] = molecular target: Ribosomal protein S6 kinase alpha-1 (Homo sapiens) (UniProt Q15418); assay: Inhibition of RSK1 (unknown origin) at 1 uM relative to control
Ribosomal protein S6 kinase alpha-1 (Homo sapiens), sequence (Q15418 whole entry): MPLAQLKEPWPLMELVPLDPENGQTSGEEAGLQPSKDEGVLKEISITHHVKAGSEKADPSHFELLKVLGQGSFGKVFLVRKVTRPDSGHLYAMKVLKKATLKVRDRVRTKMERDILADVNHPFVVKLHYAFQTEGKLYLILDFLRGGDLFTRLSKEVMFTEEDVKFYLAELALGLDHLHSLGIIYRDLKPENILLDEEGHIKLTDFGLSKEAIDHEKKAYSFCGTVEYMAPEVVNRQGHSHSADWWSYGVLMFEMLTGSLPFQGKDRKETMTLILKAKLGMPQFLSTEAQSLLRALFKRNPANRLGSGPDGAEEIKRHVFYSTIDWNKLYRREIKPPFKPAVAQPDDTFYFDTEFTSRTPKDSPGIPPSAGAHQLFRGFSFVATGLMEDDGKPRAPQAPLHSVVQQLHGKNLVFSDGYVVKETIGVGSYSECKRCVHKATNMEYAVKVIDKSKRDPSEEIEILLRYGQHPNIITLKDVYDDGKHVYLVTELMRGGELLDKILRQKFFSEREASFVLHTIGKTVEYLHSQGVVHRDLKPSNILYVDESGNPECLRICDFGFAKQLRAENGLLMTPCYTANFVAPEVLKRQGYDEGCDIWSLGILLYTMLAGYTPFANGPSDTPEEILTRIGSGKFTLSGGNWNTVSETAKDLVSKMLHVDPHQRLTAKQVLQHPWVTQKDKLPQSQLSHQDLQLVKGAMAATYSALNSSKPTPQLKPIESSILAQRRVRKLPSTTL

[27] = Half-life in male ICR mouse at 1 mg/kg, iv measured after 24 hrs by LC-MS/MS analysis; assay type: ADME, organism-based; settings: in vivo
[28] = system: PC-3; assay: Upregulation of phosphorylated AKT expression level in human PC-3 cells at 1 to 10 uM incubated for 24 hrs by Western blot analysis; assay type: functional, cell-based; settings: dose 1-10 µM
[29] = species on record: Homo sapiens; assay: Inhibition of ABL (unknown origin) at 1 uM relative to control
[30] = molecular target: Tyrosine-protein kinase JAK1 (Homo sapiens) (UniProt P23458); assay: Inhibition of JAK1 (unknown origin) at 1 uM relative to control
[31] = AUC (0 to infinity) in male ICR mouse at 10 mg/kg, po measured after 24 hrs by LC-MS/MS analysis; assay type: ADME, organism-based; settings: in vivo
[32] = system: PC-3; assay: Inhibition of AKT signaling pathway in human PC-3 cells assessed as reduction in phosphorylated GSK3beta level at 1 to 10 uM incubated for 24 hrs by Western blot analysis; assay type: cell-based; settings: dose 1-10 µM
[33] = AUC (0 to infinity) in male ICR mouse at 1 mg/kg, iv measured after 24 hrs by LC-MS/MS analysis; assay type: ADME, organism-based; settings: in vivo
[34] = molecular target: RAC-gamma serine/threonine-protein kinase (Homo sapiens) (UniProt Q9Y243); assay: Inhibition of AKT3 (unknown origin) using biotin-tagged STK as substrate at 10 nM incubated for 40 mins in presence of ATP by fluorescence based microplate reader analysis relative to control
[35] = AUC (0 to t) in male ICR mouse at 10 mg/kg, po measured after 24 hrs by LC-MS/MS analysis; assay type: ADME, organism-based; settings: in vivo
[36] = Tmax in male ICR mouse at 10 mg/kg, po measured after 24 hrs by LC-MS/MS analysis; assay type: ADME, organism-based; settings: in vivo
[37] = AUC (0 to t) in male ICR mouse at 1 mg/kg, iv measured after 24 hrs by LC-MS/MS analysis; assay type: ADME, organism-based; settings: in vivo
[38] = molecular target: RAF proto-oncogene serine/threonine-protein kinase (Homo sapiens) (UniProt P04049); assay: Inhibition of RAF-1 (unknown origin) at 1 uM relative to control
[39] = Oral bioavailability in male ICR mouse at 10 mg/kg measured after 24 hrs by LC-MS/MS analysis; assay type: ADME, organism-based; settings: in vivo
[40] = molecular target: Serine/threonine-protein kinase B-raf (Homo sapiens) (UniProt P15056); assay: Inhibition of B-raf (unknown origin) at 1 uM relative to control
Serine/threonine-protein kinase B-raf (Homo sapiens), sequence (P15056 whole entry): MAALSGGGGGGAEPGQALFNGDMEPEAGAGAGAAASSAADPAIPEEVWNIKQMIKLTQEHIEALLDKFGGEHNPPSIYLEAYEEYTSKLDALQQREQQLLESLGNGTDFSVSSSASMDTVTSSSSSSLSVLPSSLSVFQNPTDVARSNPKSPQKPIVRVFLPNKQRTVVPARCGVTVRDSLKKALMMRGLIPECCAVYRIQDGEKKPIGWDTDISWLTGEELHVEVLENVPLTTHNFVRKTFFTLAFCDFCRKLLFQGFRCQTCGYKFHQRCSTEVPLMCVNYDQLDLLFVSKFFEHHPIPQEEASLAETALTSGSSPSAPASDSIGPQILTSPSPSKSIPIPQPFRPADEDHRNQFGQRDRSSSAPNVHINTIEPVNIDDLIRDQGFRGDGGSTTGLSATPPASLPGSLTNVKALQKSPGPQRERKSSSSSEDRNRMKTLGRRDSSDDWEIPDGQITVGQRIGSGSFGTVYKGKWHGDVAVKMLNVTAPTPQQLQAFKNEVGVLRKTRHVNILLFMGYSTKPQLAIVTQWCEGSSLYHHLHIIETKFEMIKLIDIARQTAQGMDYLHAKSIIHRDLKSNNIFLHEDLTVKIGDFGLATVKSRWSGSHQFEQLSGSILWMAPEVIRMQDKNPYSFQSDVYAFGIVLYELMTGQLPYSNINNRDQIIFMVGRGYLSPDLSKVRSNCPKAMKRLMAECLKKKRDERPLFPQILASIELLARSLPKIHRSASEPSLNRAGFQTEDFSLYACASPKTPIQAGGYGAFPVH

SMILES: Cc1c[nH]c2ncnc(N3CCN(C(=O)C(CNC(C)C)c4ccc(Cl)cc4Cl)CC3)c12 (stereo not given)
IC50 [1]: 22 µM

SMILES: CNc1nc(N2CCN(C(=O)C(CNC(C)C)c3ccc(Cl)cc3Cl)CC2)c2sccc2n1 (stereo not given)
IC50 [1]: 5.9 µM

SMILES: CCn1c(-c2nonc2N)nc2c(C#CC(C)(C)O)ncc(OC[C@H]3CCCNC3)c21 [GSK-690693]
Activity [2]: 46.38%
Activity [3]: 45.34%
Activity [4]: 48.64%
Activity [5]: 48.89%
Activity [6]: 10.52%
Activity [7]: 47.26%
Activity [8]: 48.79%
Activity [9]: 5.77%
Activity [10]: 4.98%
Activity [11]: 3.96%

SMILES: CC(C)NCC(C(=O)N1CCN(c2ncnc3[nH]nc(Cl)c23)CC1)c1ccc(Cl)cc1Cl (stereo not given)
IC50 [1]: 3.5 µM

SMILES: CNc1nc(N2CCN(C(=O)C(CNC(C)C)c3ccc(Cl)cc3Cl)CC2)c2cc[nH]c2n1 (stereo not given)
IC50 [1]: 18.1 µM

SMILES: CC(C)NCC(C(=O)N1CCN(c2ncnc3[nH]nc(Br)c23)CC1)c1ccc(Cl)cc1Cl (stereo not given)
IC50 [1]: 7.8 µM

SMILES: CC(C)NCC(C(=O)N1CCN(c2ncnc3ccccc23)CC1)c1ccc(Cl)cc1Cl (stereo not given)
IC50 [1]: > 40 µM

SMILES: CNc1nccc(N2CCN(C(=O)C(CNC(C)C)c3ccc(Cl)cc3Cl)CC2)n1 (stereo not given)
IC50 [1]: 27.8 µM

SMILES: CC(C)NCC(C(=O)N1CCN(c2ncnc3[nH]ncc23)CC1)c1ccc(Cl)cc1Cl (stereo not given)
IC50 [1]: > 40 µM

Further lines, with some results ahead:

IC50 [1]: 8.7 µM
SMILES: CNc1nc(N2CCN(C(=O)C(CNC(C)C)c3ccc(Br)cc3)CC2)c2cc[nH]c2n1 (stereo not given)

IC50 [1]: > 40 µM
SMILES: CNc1nccc(N2CCN(C(=O)C(CNC(C)C)c3ccc(Br)cc3)CC2)n1 (stereo not given)

IC50 [1]: 15.8 µM
SMILES: Cc1c[nH]c2ncnc(N3CCN(C(=O)C(CNC(C)C)c4ccc(Br)cc4)CC3)c12 (stereo not given)

IC50 [1]: 23.8 µM
SMILES: CC(C)NCC(C(=O)N1CCN(c2ncnc3[nH]cnc23)CC1)c1ccc(Cl)cc1Cl (stereo not given)

inhibition [12]: < 60%
MRT inf [13]: 2.43 h
Vd [14]: 12.3 L/kg
MRT inf [15]: 1.68 h
inhibition [16]: < 60%
Cmax [17]: 306 ng/mL
half-life [18]: 1.59 h
clearance [19]: 78.6 mL/min/kg
inhibition [21]: 64%
inhibition [22]: 91%
inhibition [23]: 101%
inhibition [24]: < 60%
inhibition [25]: 98%
inhibition [26]: 99%
half-life [27]: 1.85 h
IC50 [1]: 3 µM
inhibition [29]: < 60%
inhibition [30]: < 60%
AUC(0-inf) [31]: 876 ng·h/mL
AUC(0-inf) [33]: 214 ng·h/mL
inhibition [34]: 89%
AUC(0-t) at 24 h [35]: 830 ng·h/mL
Tmax [36]: 0.5 h
AUC(0-t) at 24 h [37]: 202 ng·h/mL
inhibition [38]: < 60%
bioavailability [39]: 41%
inhibition [40]: < 60%
SMILES: CC(C)NCC(C(=O)N1CCN(c2ncnc3[nH]nc(Br)c23)CC1)c1ccc(Br)cc1 (stereo not given)
Activity [2]: 36.75%
Activity [20]: >20%
Activity [3]: 38.35%
Activity [4]: 53.21%
Activity [28]: Active; Negative Feedback Regulation Within Akt Signaling Pathway Observed
inhibition [32]: Active
Activity [5]: 49.42%
Activity [6]: 12.28%
Activity [7]: 38.31%
Activity [8]: 52.45%
Activity [9]: 12.24%
Activity [10]: 10.04%
Activity [11]: 9.23%

IC50 [1]: 20.1 µM
SMILES: CC(C)NCC(C(=O)N1CCN(c2ncnc3[nH]cnc23)CC1)c1ccc(Br)cc1 (stereo not given)

IC50 [1]: 4.9 µM
SMILES: CNc1nc(N2CCN(C(=O)C(CNC(C)C)c3ccc(Br)cc3)CC2)c2sccc2n1 (stereo not given)

IC50 [1]: 30.2 µM
SMILES: CC(C)NCC(C(=O)N1CCN(c2ncnc3ccccc23)CC1)c1ccc(Br)cc1 (stereo not given)

IC50 [1]: 12.4 µM
SMILES: CC(C)NCC(C(=O)N1CCN(c2ncnc3[nH]ncc23)CC1)c1ccc(Br)cc1 (stereo not given)

IC50 [1]: 2.9 µM
SMILES: CC(C)NCC(C(=O)N1CCN(c2ncnc3[nH]nc(Cl)c23)CC1)c1ccc(Br)cc1 (stereo not given)
Activity [2]: 36.86%
Activity [20]: >20%
Activity [3]: 32.69%
Activity [4]: 53.89%
Activity [28]: Active; Negative Feedback Regulation Within Akt Signaling Pathway Observed
inhibition [32]: Active
Activity [5]: 52.46%
Activity [6]: 15.13%
Activity [7]: 47.17%
Activity [8]: 46.45%
Activity [9]: 14.35%
Activity [10]: 9.25%
Activity [11]: 6.37%
